Results as given in patent publication US9649314B2, “Pyrimido[4,5-b]quinoline-4,5(3H,10H)-diones” (NOVARTIS AG, priority 2012, dated 2017).
Where two headings read alike, the source gives them in different places.

System: CFTR-Y122X
Test: CFTR-Y122X assay (dual reporter isogenic Hek293 cell lines, Renilla luminescence readthrough)
Assay type: cell-based
Conditions: Homo sapiens
From the text: Activity of compounds of the present invention was examined in recombinant, dual reporter isogenic Hek293 cell lines (“CFTR-Y122X assay”). The engineered reporter constructs contained the 18 bp sequence stretch corresponding to a common Y122X PTC mutation in CFTR class I mutant patients (see Sermet-Gaudelus, BMC Medicine, 2007, 5(5)). Instead of a tyrosine (Y) in position 122 of the CFTR protein a TGA stop codon interrupts the open reading frame (Y122X) of the corresponding mRNA. This TGA stop codon triplet (followed by the pyrimidine base cytosine) is permissive to aminoglycoside mediated translational readthrough which served as positive control for high throughput screening. A corresponding TAA stop codon variant and a wildtype non mutated construct was used for confirmation and counter screening. The CFTR sequence was sandwiched between an eGFP reporter, and a triple myc tag sequence fused to a full length Renilla reporter. All sequences, including an intron containing one positioned pre-eGFP (b-globin intron) were cloned in frame. The corresponding expression constructs were stably expressed in the isogenic HEK-R4 cell host (Invitrogen Incorp.) and selected by blasticidin resistance. The isogenic integration of the construct minimizes gene dose effects and improves assay reproducibility. Stably integrated single cell derived clones were selected and characterized for aminoglycoside mediated readthrough. […] Readthrough of Y122X accumulates an intracellular localized fusion protein approximately 65.5 kDa in size as controlled by western blot analysis and immunofluorescence using an anti-renilla antibody. The eGFP reporter pre-PTC mutation serves as visual control for genetic stability of the screening clones and minimizes protein degradation of small fusion protein amounts. In the assay, compound concentration was 10 μM. In miniaturized 1536 well format 2000 cells were dispensed in 4 μl/well and incubated for 24 h at 37° C., 5% CO2. 40 nl compounds were placed on the cells with control wells containing 1 ul Paramomycin and 14.4 mM final concentration. Compounds were incubated for 24 h. Renilla Glo substrate (2.5 ul) was added and plates were centrifuged and processed for luminescence measurement using various readers. Activity calculation was done using the equation: A1 (%)=100*(S−NC)/(AC−NC) where AC, NC and S correspond to active controls (injection of Stimulation buffer=100% stimulation), neutral controls (buffer injection which Iloprost EC10) and screening samples (S). NC corresponds to 0% activity whereas AC is 100% activity (14 mM paromomycin). False positive artefacts were removed in confirmation and validation screening using the same assay format followed by counterscreening using the respective wildtype construct (w/o PTC mutation) cell model. Compounds were tested up to 100 μM compound concentration.

[1] = HEK293, nonsense mutation suppression, 100% = 14 mM paromomycin, 24 h incubation, tested up to 100 μM, read-out: Amax [%]
[2] = HEK293, nonsense mutation suppression, 24 h incubation
[3] = HEK293, at the above dose ranges (up to 100 μM), read-out: suppression, % of paromomycin reference activity

Compound	Emax [1]	AC50 [2]	other results
Cn1c2ccccc2c(=O)c2c(=O)n(C3CCCCC3)c(-c3ccccc3Cl)nc21 [Example 2.38, 2-(2-chlorophenyl)-3-cyclohexyl-10-methylpyrimido[4,5-b]quinoline-4,5(3H,10H)-dione]	21%	10 µM	–
O=c1c2ccccc2[nH]c2nc(C3CCC3)n(-c3ccccc3)c(=O)c12 [Example 1.5, 2-cyclobutyl-3-phenylpyrimido[4,5-b]quinoline-4,5(3H,10H)-dione]	170%	1.1 µM	–
Cc1ccc(-c2nc3c(c(=O)c4ccccc4n3C)c(=O)n2C2CCCC2)cc1 [Example 2.40, 3-cyclopentyl-10-methyl-2-(p-tolyl)pyrimido[4,5-b]quinoline-4,5(3H,10H)-dione]	20%	6.7 µM	–
O=c1c2ccccc2n(CCO)c2nc(C3CCC3)n(-c3ccccc3)c(=O)c12 [Example 1.39, 2-cyclobutyl-10-(2-hydroxyethyl)-3-phenylpyrimido[4,5-b]quinoline-4,5(3H,10H)-dione]	250%	3.2 µM	–
CC(C)c1ccccc1-n1c(C(C)C)nc2c(c(=O)c3ccccc3n2C)c1=O [Example 1.38, 2-isopropyl-3-(2-isopropylphenyl)-10-methylpyrimido[4,5-b]quinoline-4,5(3H,10H)-dione]	15%	–	–
CC(C)c1nc2c(c(=O)c3ccccc3n2C)c(=O)n1-c1ccccc1F [Example 1.15, 3-(2-fluorophenyl)-2-isopropyl-10-methylpyrimido[4,5-b]quinoline-4,5(3H,10H)-dione]	169%	7.8 µM	–
Cn1c2ccccc2c(=O)c2c(=O)n(-c3ccccc3)c(C3CCC3)nc21 [Example 1.1, 2-cyclobutyl-10-methyl-3-phenylpyrimido[4,5-b]quinoline-4,5(3H,10H)-dione]	–	1.3 µM	Emax (HEK293, 24 h, read-out: Amax [%]): 258%
Cn1c2ccccc2c(=O)c2c(=O)n(C3CCCCC3)c(C3CCCCC3)nc21 [2,3-dicyclohexyl-10-methylpyrimido[4,5-b]quinoline-4,5(3H,10H)-dione]	–	–	Emax [3]: < 5%
COc1ccc(-c2nc3c(c(=O)c4ccccc4n3C)c(=O)n2C2CCCCCC2)cc1 [Example 2.47, 3-cycloheptyl-2-(4-methoxyphenyl)-10-methylpyrimido[4,5-b]quinoline-4,5(3H,10H)-dione]	10%	3.1 µM	–
C=CCn1c2ccccc2c(=O)c2c(=O)n(-c3ccccc3)c(C3CCC3)nc21 [Example 1.4, 10-allyl-2-cyclobutyl-3-phenylpyrimido[4,5-b]quinoline-4,5(3H,10H)-dione]	279%	4 µM	–
Cn1c2ccccc2c(=O)c2c(=O)n(C3CCCCCC3)c(-c3cccc(Br)c3)nc21 [Example 2.50, 2-(3-bromophenyl)-3-cycloheptyl-10-methylpyrimido[4,5-b]quinoline-4,5(3H,10H)-dione]	6%	4.4 µM	–
CC(C)c1nc2[nH]c3ccccc3c(=O)c2c(=O)n1C1CCCC1 [Example 2.2, 3-cyclopentyl-2-isopropylpyrimido[4,5-b]quinoline-4,5(3H,10H)-dione]	235%	2.1 µM	–
CCc1nc2c(c(=O)c3ccccc3n2C)c(=O)n1-c1cc(C)cc(C)c1 [Example 1.33, 3-(3,5-dimethylphenyl)-2-ethyl-10-methylpyrimido[4,5-b]quinoline-4,5(3H,10H)-dione]	16%	0.7 µM	–
Cn1c2ccccc2c(=O)c2c(=O)n(C3CCCCCC3)c(C3CCCCC3)nc21 [3-cycloheptyl-2-cyclohexyl-10-methylpyrimido[4,5-b]quinoline-4,5(3H,10H)-dione]	–	–	Emax [3]: < 5%
CC(C)c1nc2c(c(=O)c3cc(Cl)ccc3n2C)c(=O)n1C1CCCC1 [Example 2.11, 7-chloro-3-cyclopentyl-2-isopropyl-10-methylpyrimido[4,5-b]quinoline-4,5(3H,10H)-dione]	192%	10.7 µM	–
CC(C)c1nc2c(c(=O)c3cccc(Cl)c3n2C)c(=O)n1C1CCCC1 [Example 2.51, 9-chloro-3-cyclopentyl-2-isopropyl-10-methylpyrimido[4,5-b]quinoline-4,5(3H,10H)-dione]	–	–	Emax at 25 µM (HEK293, measured at 25 μM compound concentration (footnote a), read-out: Amax [%]: % nonsense mutation suppression relative to paromomycin reference activity): 6%
COc1cc(-c2nc3c(c(=O)c4ccccc4n3C)c(=O)n2C2CCCCCC2)cc(OC)c1OC [Example 2.42, 3-cycloheptyl-10-methyl-2-(3,4,5-trimethoxyphenyl)pyrimido[4,5-b]quinoline-4,5(3H,10H)-dione]	18%	10.7 µM	–
Cn1c2ccccc2c(=O)c2c(=O)n(C3CCCC3)c(-c3ccc(Cl)cc3)nc21 [2-(4-chlorophenyl)-3-cyclopentyl-10-methylpyrimido[4,5-b]quinoline-4,5(3H,10H)-dione]	–	–	Emax [3]: < 5%
CC(C)c1nc2c(c(=O)c3ccccc3n2C)c(=O)n1-c1ccccc1C(F)(F)F [Example 1.20, 2-isopropyl-10-methyl-3-(2-(trifluoromethyl)phenyl)pyrimido[4,5-b]quinoline-4,5(3H,10H)-dione]	65%	13.8 µM	–
Cn1c2ccccc2c(=O)c2c(=O)n(C3CCCCC3)c(-c3ccc(Cl)cc3)nc21 [Example 2.44, 2-(4-chlorophenyl)-3-cyclohexyl-10-methylpyrimido[4,5-b]quinoline-4,5(3H,10H)-dione]	16%	–	–
CC(C)c1nc2c(c(=O)c3cccc4c3n2CC4)c(=O)n1-c1ccccc1 [Example 1.27, 9-isopropyl-8-phenyl-1H-pyrimido[4,5-b]pyrrolo[3,2,1-ij]quinoline-6,7(2H,8H)-dione]	271%	6.8 µM	–
CC(C)c1nc2c(c(=O)c3cc(C(F)(F)F)ccc3n2C)c(=O)n1-c1ccccc1 [2-isopropyl-10-methyl-3-phenyl-7-(trifluoromethyl)pyrimido[4,5-b]quinoline-4,5(3H,10H)-dione]	–	–	Emax [3]: < 5%
CC(C)c1nc2c(c(=O)c3ccccc3n2C)c(=O)n1C1CCOC1 (centres unmarked) [2-isopropyl-10-methyl-3-(tetrahydrofuran-3-yl)pyrimido[4,5-b]quinoline-4,5(3H,10H)-dione]	–	–	Emax [3]: < 5%
Cn1c2ccccc2c(=O)c2c(=O)n(C3CCCCC3)c(-c3ccccc3F)nc21 [Example 2.41, 3-cyclohexyl-2-(2-fluorophenyl)-10-methylpyrimido[4,5-b]quinoline-4,5(3H,10H)-dione]	18%	4.9 µM	–
Cn1c2ccccc2c(=O)c2c(=O)n(C3CCCCCC3)c(-c3ccc(C(C)(C)C)cc3)nc21 [2-(4-(tert-butyl)phenyl)-3-cycloheptyl-10-methylpyrimido[4,5-b]quinoline-4,5(3H,10H)-dione]	–	–	Emax [3]: < 5%
CCCCCCCc1nc2c(c(=O)c3ccccc3n2C)c(=O)n1-c1ccccc1 [Example 1.48, 2-heptyl-10-methyl-3-phenylpyrimido[4,5-b]quinoline-4,5(3H,10H)-dione]	235%	11.7 µM	–
CC(C)c1nc2c(c(=O)c3ccccc3n2C)c(=O)n1N1CCCCC1 [Example 2.8, 2-isopropyl-10-methyl-3-(piperidin-1-yl)pyrimido[4,5-b]quinoline-4,5(3H,10H)-dione]	264%	10.6 µM	–
CCCCCc1nc2c(c(=O)c3ccccc3n2C)c(=O)n1C1CCCCCC1 [Example 2.25, 3-cycloheptyl-10-methyl-2-pentylpyrimido[4,5-b]quinoline-4,5(3H,10H)-dione]	149%	6.4 µM	–
